# Assay results published in patent publication US8278473B2, “Alpha, beta-unsaturated imidate compound and pesticidal composition containing the same” (Sumitomo Chemical Company, Limited, priority 2007, dated 2012).
# Test system: Haemaphysalis longicornis
# Experiment: Test Example 10: Haemaphysalis longicornis, treated filter paper pouch
# Assay type: in vivo
# Conditions: 0.5 mg compound on filter paper 5×10 cm; non-blood sucking nymphal ticks; after 2 days
# Protocol: In 1 mL of acetone, 0.5 mg of any one of the present compounds 1 to 48 was dissolved, and the solution was spread uniformly on one side of a filter paper (TOYO No. 2; 5×10 cm). After dried, the filter paper was folded into two, and the sides were clipped to make a pouch. Into the pouch, tested ticks (Haemaphysalis longicornis, non-blood sucking nymphal ticks, 10 ticks in a group) were placed. The pouch was clipped and sealed. After 2 days, the number of dead ticks was counted.
row,Structure (SMILES),death rate [%]
1,"CC(=COc1cccc(C)c1)C(=Nc1ccccc1)Oc1ccccc1 [Compound 175, phenyl 2-methyl-3-(3-methylphenyloxy)-N-phenyl-2-propenimidate]",100
2,"CC(=COc1cccc(C)c1)C(=Nc1ccccc1)Oc1cccc(C)c1 [Compound 176, 3-methylphenyl 2-methyl-3-(3-methylphenyloxy)-N-phenyl-2-propenimidate]",100
3,"CCc1cccc(OC(=Nc2ccccc2)C(C)=COc2cccc(C)c2)c1 [Compound 177, 3-ethylphenyl 2-methyl-3-(3-methylphenyloxy)-N-phenyl-2-propenimidate]",100
4,"CC(=COc1cccc(C)c1)C(=Nc1ccccc1)Oc1cccc(C(C)C)c1 [Compound 178, 3-isopropylphenyl 2-methyl-3-(3-methylphenyloxy)-N-phenyl-2-propenimidate]",100
5,"CCOc1cccc(OC(=Nc2ccccc2)C(C)=COc2cccc(C)c2)c1 [Compound 179, 3-ethoxyphenyl 2-methyl-3-(3-methylphenyloxy)-N-phenyl-2-propenimidate]",100
6,"CC(=COc1cccc(C)c1)C(=Nc1ccccc1)Oc1cc(C)cc(C)c1 [Compound 182, 3,5-dimethylphenyl 2-methyl-3-(3-methylphenyloxy)-N-phenyl-2-propenimidate]",100
7,"CC(=COc1cccc(C)c1)C(=Nc1ccc(C)cc1)Oc1ccccc1 [Compound 183, phenyl 2-methyl-N-(4-methylphenyl)-3-(3-methylphenyloxy)-2-propenimidate]",100
8,"CC(=COc1cccc(C)c1)C(=Nc1ccc(C)cc1)Oc1cccc(C)c1 [Compound 184, 3-methylphenyl 2-methyl-N-(4-methylphenyl)-3-(3-methylphenyloxy)-2-propenimidate]",100
9,"CCc1cccc(OC(=Nc2ccc(C)cc2)C(C)=COc2cccc(C)c2)c1 [Compound 185, 3-ethylphenyl 2-methyl-N-(4-methylphenyl)-3-(3-methylphenyloxy)-2-propenimidate]",100
10,"CCOc1cccc(OC(=Nc2ccc(C)cc2)C(C)=COc2cccc(C)c2)c1 [Compound 186, 3-ethoxyphenyl 2-methyl-N-(4-methylphenyl)-3-(3-methylphenyloxy)-2-propenimidate]",100
11,"COc1ccc(N=C(Oc2ccccc2)C(C)=COc2cccc(C)c2)cc1 [Compound 188, phenyl N-(4-methoxyphenyl)-2-methyl-3-(3-methylphenyloxy)-2-propenimidate]",100
12,"COc1ccc(N=C(Oc2cccc(C)c2)C(C)=COc2cccc(C)c2)cc1 [Compound 189, 3-methylphenyl N-(4-methoxyphenyl)-2-methyl-3-(3-methylphenyloxy)-2-propenimidate]",100
13,"CC(=COc1ccc(C)cc1)C(=Nc1ccccc1)Oc1ccccc1C [Compound 194, 2-methylphenyl 2-methyl-3-(4-methylphenyloxy)-N-phenyl-2-propenimidate]",100
14,"CC(=COc1ccc(C)cc1)C(=Nc1ccccc1)Oc1cccc(C)c1 [Compound 195, 3-methylphenyl 2-methyl-3-(4-methylphenyloxy)-N-phenyl-2-propenimidate]",100
15,"CC(=COc1ccc(C)cc1)C(=Nc1ccccc1)Oc1cccc(F)c1 [Compound 198, 3-fluorophenyl 2-methyl-3-(4-methylphenyloxy)-N-phenyl-2-propenimidate]",100
16,"CC(=COc1ccc(C)cc1)C(=Nc1ccccc1)Oc1ccc(F)cc1 [Compound 199, 4-fluorophenyl 2-methyl-3-(4-methylphenyloxy)-N-phenyl-2-propenimidate]",100
17,"CC(=COc1ccc(C)cc1)C(=Nc1ccccc1)Oc1ccc(Cl)cc1 [Compound 202, 4-chlorophenyl 2-methyl-3-(4-methylphenyloxy)-N-phenyl-2-propenimidate]",100
18,"COc1ccc(OC(=Nc2ccccc2)C(C)=COc2ccc(C)cc2)cc1 [Compound 205, 4-methoxyphenyl 2-methyl-3-(4-methylphenyloxy)-N-phenyl-2-propenimidate]",100
19,"CC(=COc1ccc(C)cc1)C(=Nc1ccccc1)Oc1cccc(C(F)(F)F)c1 [Compound 206, 3-(trifluoromethyl)phenyl 2-methyl-3-(4-methylphenyloxy)-N-phenyl-2-propenimidate]",100
20,"CC(=COc1ccc(C)cc1)C(=Nc1ccccc1)Oc1ccc2ccccc2c1 [Compound 207, 2-naphthyl 2-methyl-3-(4-methylphenyloxy)-N-phenyl-2-propenimidate]",100
21,"CC(=COc1ccc(C)cc1)C(=Nc1ccc(C)cc1)Oc1cccc(C)c1 [Compound 210, 3-methylphenyl 2-methyl-N-(4-methylphenyl)-3-(4-methylphenyloxy)-2-propenimidate]",100

row,Structure (SMILES),death rate [%]
1,"CC(=COc1ccc(C)cc1)C(=Nc1ccc(C)cc1)Oc1cccc(F)c1 [Compound 214, 3-fluorophenyl 2-methyl-N-(4-methylphenyl)-3-(4-methylphenyloxy)-2-propenimidate]",100
2,"CC(=COc1ccc(C)cc1)C(=Nc1ccc(C)cc1)Oc1ccc(F)cc1 [Compound 215, 4-fluorophenyl 2-methyl-N-(4-methylphenyl)-3-(4-methylphenyloxy)-2-propenimidate]",100
3,"COc1cccc(OC(=Nc2ccc(C)cc2)C(C)=COc2ccc(C)cc2)c1 [Compound 220, 3-methoxyphenyl 2-methyl-N-(4-methylphenyl)-3-(4-methylphenyloxy)-2-propenimidate]",100
4,"COc1ccc(OC(=Nc2ccc(C)cc2)C(C)=COc2ccc(C)cc2)cc1 [Compound 221, 4-methoxyphenyl 2-methyl-N-(4-methylphenyl)-3-(4-methylphenyloxy)-2-propenimidate]",100
5,"COc1ccc(N=C(Oc2cccc(C)c2)C(C)=COc2ccc(C)cc2)cc1 [Compound 225, 3-methylphenyl N-(4-methoxyphenyl)-2-methyl-3-(4-methylphenyloxy)-2-propenimidate]",100
6,"CCc1ccc(OC=C(C)C(=Nc2ccccc2)Oc2ccccc2)cc1 [Compound 229, phenyl 3-(4-ethylphenyloxy)-2-methyl-N-phenyl-2-propenimidate]",100
7,"CC(=COc1ccc(C(C)C)cc1)C(=Nc1ccccc1)Oc1ccccc1 [Compound 230, phenyl 3-(4-isopropylphenyloxy)-2-methyl-N-phenyl-2-propenimidate]",100
8,"CC(=COc1ccc(Cl)cc1)C(=Nc1ccccc1)Oc1ccccc1 [Compound 231, phenyl 3-(4-chlorophenyloxy)-2-methyl-N-phenyl-2-propenimidate]",100
9,"COc1ccccc1OC=C(C)C(=Nc1ccccc1)Oc1ccccc1 [Compound 232, phenyl 3-(2-methoxyphenyloxy)-2-methyl-N-phenyl-2-propenimidate]",100
10,"COc1ccccc1OC=C(C)C(=Nc1ccccc1)Oc1cccc(C)c1 [Compound 233, 3-methylphenyl 3-(2-methoxyphenyloxy)-2-methyl-N-phenyl-2-propenimidate]",100
11,"CCc1cccc(OC(=Nc2ccccc2)C(C)=COc2ccccc2OC)c1 [Compound 234, 3-ethylphenyl 3-(2-methoxyphenyloxy)-2-methyl-N-phenyl-2-propenimidate]",100
12,"COc1cccc(OC(=Nc2ccccc2)C(C)=COc2ccccc2OC)c1 [Compound 236, 3-methoxyphenyl 3-(2-methoxyphenyloxy)-2-methyl-N-phenyl-2-propenimidate]",100
13,"CCOc1cccc(OC(=Nc2ccccc2)C(C)=COc2ccccc2OC)c1 [Compound 237, 3-ethoxyphenyl 3-(2-methoxyphenyloxy)-2-methyl-N-phenyl-2-propenimidate]",100
14,"COc1ccccc1OC=C(C)C(=Nc1ccccc1)Oc1cc(C)cc(C)c1 [Compound 238, 3,5-dimethylphenyl 3-(2-methoxyphenyloxy)-2-methyl-N-phenyl-2-propenimidate]",100
15,"COc1ccccc1OC=C(C)C(=Nc1ccc(C)cc1)Oc1ccccc1 [Compound 239, phenyl 3-(2-methoxyphenyloxy)-2-methyl-N-(4-methylphenyl)-2-propenimidate]",100
16,"COc1ccccc1OC=C(C)C(=Nc1ccc(C)cc1)Oc1cccc(C)c1 [Compound 240, 3-methylphenyl 3-(2-methoxyphenyloxy)-2-methyl-N-(4-methylphenyl)-2-propenimidate]",100
17,"CCc1cccc(OC(=Nc2ccc(C)cc2)C(C)=COc2ccccc2OC)c1 [Compound 241, 3-ethylphenyl 3-(2-methoxyphenyloxy)-2-methyl-N-(4-methylphenyl)-2-propenimidate]",100
18,"COc1cccc(OC(=Nc2ccc(C)cc2)C(C)=COc2ccccc2OC)c1 [Compound 242, 3-methoxyphenyl 3-(2-methoxyphenyloxy)-2-methyl-N-(4-methylphenyl)-2-propenimidate]",100
19,"CCOc1cccc(OC(=Nc2ccc(C)cc2)C(C)=COc2ccccc2OC)c1 [Compound 243, 3-ethoxyphenyl 3-(2-methoxyphenyloxy)-2-methyl-N-(4-methylphenyl)-2-propenimidate]",100
20,"COc1ccccc1OC=C(C)C(=Nc1ccc(C)cc1)Oc1cc(C)cc(C)c1 [Compound 244, 3,5-dimethylphenyl 3-(2-methoxyphenyloxy)-2-methyl-N-(4-methylphenyl)-2-propenimidate]",100
21,"COc1ccc(N=C(Oc2ccccc2)C(C)=COc2ccccc2OC)cc1 [Compound 245, phenyl N-(4-methoxyphenyl)-3-(2-methoxyphenyloxy)-2-methyl-2-propenimidate]",100
